Laboratory results: patent publication US20200087703A1, “METABOLIC LABELING OF BACTERIAL TEICHOIC ACIDS CELL WALL” (priority 2017, published 2020)

Assays:
[1] = test system: S. pneumoniae; details: grown 4 hours with 30 μM, then 25 μM DIBO Alexa Fluor 5 min
Source text: (§1) The choice was oriented towards a rapid click reaction involving an azide function carried by the choline and the strained dibenzoannulated cyclooctyne DIBO carrying the fluorophore. […] For subsequent click reaction, fluorescent DIBO offers a compromise between stability and rapidity with a choice of commercially available fluorophores.

[2] = test system: S. pneumoniae; details: 15 seconds incubation, then DIBO-ATTOS 488 for 5 min
Method: The reaction is stopped by three washes with 1 ml of cold PBS. The bacterium is then re-suspended in 20-40 μl of PBS and observed immediately by fluorescence microscopy.

[3] = test system: S. pneumoniae R800; details: C-medium without choline, 30 μM
Method: FIG. 15. […] In C-medium without choline (*), with 30 μM azidocholine (†) or choline (‡).
as §1

[4] = test system: S. pneumoniae live cells; experiment: TA metabolic labeling on pneumococcal live cells (CuAAC with coumarin, fluorescence microscopy); type: cell-based, Streptococcus pneumoniae; details: copper 50 μM, THPTA, 30 min, five independent experiments
Source text: FIG. 10. TA metabolic labeling on pneumococcal live cells. A. Detection of metabolically incorporated propargyl-choline in S. pneumoniae living cells after bioorthogonal reaction. (i) and (ii) refer to two different stages of division. Membrane and septal TA labeling are indicated by black and white arrow heads, respectively. Phase contrast and fluorescence images in the presence (left panel) or absence of propargyl-choline (right panel) are shown. Scale bar=1 μm. B. Electron micrographs of pneumococcal cells at division stages (i) and (ii) as shown in A. C.
For bioorthogonal reactions, 10 ml of Cmed-choline and 10 ml of C-medium containing 4 μg/ml of propargyl-choline were inoculated at OD600 nm of 0.05 with aliquots of cells conditioned in C-medium as described above. The growth was pursued at 37° C.-5% CO2 for 3 hours until OD600 nm of 0.2-0.25 was reached, which corresponds to the early exponential growth phase. […]
Pneumococcal cells were transferred to microscope slides and observed using an Olympus BX61 optical microscope equipped with a UPFLN 100× O-2PH/1.3 objective and a QImaging Retiga-SRV 1394 cooled charge-coupled device camera. […] The cells are then sorted by their length value and the fluorescence values are plotted as a heat map. […]

Compound | cell surface labeling pattern [1] | labeling quality after short pulse [2] | ability to replace choline for growth [3] | fluorescent signal ratio propargyl-choline/choline [4]
1-azidoethyl-choline | Uniform cell surface labeling | high-quality labeling | efficiently replaced choline to allow growth | –
C#CC[N+](C)(C)CCO [propargyl-choline] | – | – | – | 4.28±0.8
